A short description of data set [1]: Pharmacokinetics test, oral capsules. Format: in vivo. Conditions: male Beagle dogs, 5 mg/kg, figures not given. The procedure:
Male Beagle dogs of 8-12 kg were divided into 3 groups, 3 dogs in each group, and capsules containing test samples were orally administered at a dose of 5 mg/kg, and blood was collected at time points of 0.25, 0.5, 1.0, 2.0, 4.0, 6.0, 8.0 and 24 h. Standard curve was plotted based on concentrations of the samples in a suitable range, the concentration of the test sample in the plasma sample was measured and quantified by AB SCIEX API4000-type LC-MS / MS at MRM mode. Pharmacokinetic parameters were calculated according to drug concentration -time curve using a noncompartmental method by WinNonLin 6.3 software.

Data set [2] can be described thus: Accelerated stability test. Format: physicochemical. The note with it: 40°C ± 2°C / 75% ± 5% RH, 6 month.
A short description of data set [3]: Light-exposure stability test. The format is physicochemical. The note with it: 30 day; for Outward: colour. The protocol: (§1) • (1) High-Temperature Test: Place an appropriate amount of the test sample in a flat weighing bottle, spreading it into a thin layer ≤5 mm thick. Store at 60°C ± 2°C for 30 days. Collect samples at 0, 5, 10, and 30 days for analysis according to the key stability test items. Observe any color changes and determine purity by HPLC. • (2) High-Humidity Test: Place an appropriate amount of the test sample from one batch in a flat weighing bottle, spreading it into a thin layer ≤5 mm thick. Store at 25°C and 90% ± 5% relative humidity (RH) for 30 days. Collect samples at 0, 5, 10, and 30 days for analysis according to the key stability test items. Observe any color changes and determine purity by HPLC. • (3) Light-Exposure Test: Expose the sample to visible light (4500 lx ± 500 lx) and UV light (energy ≥0.7 W·h/m^2) for 30 days. Collect samples at 0, 5, 10, 15, and 30 days for analysis according to the key stability test items. Observe any color changes and determine purity by HPLC. • (4) Accelerated Test: Package an appropriate amount of the test sample from one batch in single-layer PE with aluminum foil. Store at 40°C ± 2°C / 75% ± 5% RH for […]. Collect samples at 0, 1, 2, 3, and 6 months for analysis according to the key stability test items. Observe any color changes and determine purity by HPLC.

Data set [4] can be described thus: High-temperature stability test. The format is physicochemical. The note with it: for Outward: colour. The protocol:
as §1

The nature of data set [5]: High-humidity stability test. Format: physicochemical. Conditions: 25°C, 90% ± 5% RH, 30 day; for Outward: colour. The procedure:
as §1

Data set [6] is described as follows: Accelerated stability test. Format: physicochemical. Conditions: 40°C ± 2°C / 75% ± 5% RH; for Outward: colour. The protocol:
as §1

Data set [7] can be described thus: Hygroscopicity test by dynamic vapor sorption (DVS). Format: physicochemical. The procedure:
The hygroscopicity of the present invention was determined using a DVS INT-Std dynamic vapor and gas sorption analyzer from Surface Measurement Systems Ltd. (UK) with the following parameters: humidity test range: 0%-95%, gas flow: 200 mL/min, temperature: 25°C, test points: one measurement point every 5% humidity increase.
An appropriate amount of the test sample was taken, and its hygroscopicity was measured using a dynamic vapor sorption (DVS) instrument. The classification criteria for hygroscopicity characteristics and moisture absorption weight gain (as per Appendix 9103 "Guidelines for Hygroscopicity Testing of Drugs" from the Chinese Pharmacopoeia 2020 Edition, test conditions: 25°C ± 1°C, 80% ± 2% relative humidity (RH)) are described in Table 3 below: Table 3 The description of the hygroscopicity feature and the definition of the hygroscopicity gain

A short description of data set [8]: Solubility test (HPLC). The format is physicochemical. The note with it: figures not given. The procedure:
The solubility of the present invention was determined using an Agilent 1200 High Performance Liquid Chromatograph DAD/VWD detector with an Agilent XDB-C18 model (4.6 x 50 mm, 5 µm). Detection wavelength of 266 nm, flow rate of 1.0 mL/min, the column temperature of 35 °C, mobile phase A: acetonitrile - 0.01 M ammonium acetate = 10:90 (V: V) analysis methods: acetonitrile - mobile phase A= 70:30 (V: V), running time: 10 minutes.

The nature of data set [9]: Crystal form transformation (polymorphic transition). Format: physicochemical. The note with it: for crystal form transformation: in solvents such as ethanol.
Setting [10] is: 0 day, common start value of the high-temperature, high-humidity and light-exposure tests, HPLC.
The mark [11] stands for this setting: 0 day, common start value of the three tests.
[12] abbreviates: High-Temperature, 60°C ± 2°C, 30 day.

Turning to `COC(=O)Nc1c(N)nc(-c2nn(Cc3ccccc3F)c3c(F)cccc23)nc1N` [Crystal Form II, methyl (4,6-diamino-2-(7-fluoro-1-(2-fluorobenzyl)-1H-indazol-3-yl)pyrimidin-5-yl)carbamate], the pharmacokinetic properties entry in [1] is given as “excellent pharmacokinetic properties”. For the same compound, the Outward entry is recorded as “Off-white” in data set [2] (colour); “Pale yellow” in data set [3]; “Off-white” in [4] (setting [11]); “Off-white” in [4] (setting [12]); “Off-white” in data set [5]; “Off-white” in data set [6] (0 day). The Outward result in data set [6] (1 month), in data set [6] (2 month) and in data set [6] (3 month) was “Off-white” throughout. The remaining at 4320 h in data set [2] (solid storage, 75% rh, read-out: Purity (%)) came to 99.9%. Moreover, the remaining at 720 h in [3] (solid storage, light exposure, visible light 4500 lx ± 500 lx and UV light, HPLC, read-out: Purity (%)) is 99.9%; in data set [4] (solid storage, High-Temperature, 60°C ± 2°C, 30 day, HPLC, read-out: Purity (%)), 99.9%; in data set [5] (solid storage, 90% rh, HPLC, read-out: Purity (%)) it was 100%; in data set [6] (solid storage, 75% rh, 1 month, read-out: Purity (%)) it was 100%. Further, the “Purity (%)” value in data set [4] (setting [10]) came to 99.97%; in data set [6] (0 day), 99.96%. Further, the stability result in [4] (conclusion over various storage conditions (high-temperature, high-humidity, light-exposure and accelerated tests)) was “excellent stability”. In addition, in [6] (solid storage, 75% rh, 2 month, read-out: Purity (%)), the remaining at 1440 h amounted to 100%. In data set [6] (solid storage, 75% rh, 3 month, read-out: Purity (%)), the remaining at 2160 h turned out to be 100%. For the same compound, the “Weight Gain at 60% RH (%)” value in data set [7] (DVS, 25°C, 60% RH) is listed as 0.02%. The “Weight Gain at 80% RH (%)” value in data set [7] (DVS, 25°C, 80% RH) was 0.05%. The “Weight Gain at 95% RH (%)” value in data set [7] (DVS, 25°C, 95% RH) is on record as 0.18%. In data set [7] (classification per Chinese Pharmacopoeia 2020, 25°C ± 1°C, 80% ± 2% RH), the the hygroscopicity feature entry is given as “no or negligible hygroscopicity”. Besides, in data set [7] (under high humidity conditions), the deliquescence result is given as “not prone to deliquescence”. In addition, in [8], the solubility entry is “good solubility”. The “stability of the crystal structure” value in data set [9] (in contrast to the other crystal forms) is “less prone to polymorphic transition”.

As to `COC(=O)Nc1c(N)nc(-c2nn(Cc3ccccc3F)c3c(F)cccc23)nc1N` [Crystal Form I, methyl (4,6-diamino-2-(7-fluoro-1-(2-fluorobenzyl)-1H-indazol-3-yl)pyrimidin-5-yl)carbamate], the crystal form transformation result in data set [9] is recorded as “transform into Crystal form II”.

`COC(=O)Nc1c(N)nc(-c2nn(Cc3ccccc3F)c3c(F)cccc23)nc1N` [Crystal Form V, methyl (4,6-diamino-2-(7-fluoro-1-(2-fluorobenzyl)-1H-indazol-3-yl)pyrimidin-5-yl)carbamate]: the Outward result was “Pale yellow” in data set [3], “Off-white” in [4] (setting [11]), “Off-white” in data set [4] (setting [12]) and “Off-white” in data set [5]. Besides, the “Purity (%)” value in [3] (visible light 4500 lx ± 500 lx and UV light, HPLC, 43200 min) is 99.36%; in [4] (setting [10]), 99.52%; in [4] (High-Temperature, 60°C ± 2°C, 30 day, HPLC, 43200 min) it was 99.47%; in [5] (HPLC, 43200 min) it was 99.51%. The crystal form transformation entry in data set [9] was “transform into Crystal form II”. Moreover, the polymorphic transition result in data set [9] (under high temperature conditions) was “undergoes polymorphic transition”.

Source of the values: EP4640676A1, “CRYSTAL FORM OF FLUORINE-SUBSTITUTED INDAZOLE COMPOUND AND USE THEREOF” (Sunshine Lake Pharma Co., Ltd., priority 2022, dated 2024).
